The text below walks through data of patent publication US4537776A, “Penetrating topical pharmaceutical compositions containing N-(2-hydroxyethyl) pyrrolidone” (priority 1983, dated 1985).

Each structure is given as a SMILES string.

This series is described as follows: Penetration study, Franz diffusion apparatus, human skin (*). It is filed as in vitro ADME. The conditions noted are these: Example 8; for Reduction of penetration on addition of the compound (in words): results similar to octanoic acid (reduces penetration by 50%).

Method: The following Penetration Studies carried out in the following manner. […] A normal saline solution is added to the lower diffusion cell, abutting the subcutaneous side of the skin. The test composition (comprising a solution of active or actives added to the carrier at the indicated formulation in a conventional manner by thoroughly mixing) is added to the diffusion cell abutting the epidermal side of the skin.
This cell assembly is kept at a constant temperature of about 31° C. At appropriate or desired intervals (these are the time designations given in the following examples) each diffusion cell assembly is opened and the diffusate from the cell abutting the subcutaneous side of the skin is withdrawn. Drug actives in a diffusate is measured using standard analytical techniques. Each trial is run on a separate sample of skin.

On to `CCCCCCCCCCCCCCCCO` [cetyl alcohol], for which the “Reduction of penetration on addition of the compound (in words)” value (“Reduction of penetration … (in words)” for short) is reported as “Substantially similar results”.

Regarding `CCCCCCCCCC(=O)O` [decanoic acid], the “Reduction of penetration … (in words)” value is “Substantially similar results”.

For `CCCCCCCC(=O)O` [octanoic acid], where the note is “added to 1% Triamcinolone in Propylene Glycol + 2% C14 OH, human skin, 0-72 hrs.”, the “Reduction of penetration on addition of the compound” value came to 50%.

Regarding `CCCCCCCCCCCCCCCCCCO` [stearyl alcohol], the “Reduction of penetration … (in words)” value is reported as “Substantially similar results”.
